Data reported in publication doi:10.1101/623967v1 (bioRxiv, 2019).

Tests used:
Format in all cases: physicochemical
[1] = Tryptophan fluorescence emission spectra at acidic and basic pH; settings: POPC, Trp fluorescence, λex 280 nm
[2] = as above; settings: POPC/POPS (9/1), Trp fluorescence, λex 280 nm
[3] = pKFI determination: tryptophan fluorescence pH titration; settings: lipid:peptide 150:1; for pKFI in the presence of NaCl: 150 mM NaCl, POPC and POPC/POPS (9/1) gave similar pKFI; for effect of 150 mM NaCl on the pKFI: POPC vesicles, compared with no NaCl, result in words
[4] = pKFI determination: tryptophan fluorescence pH titration with PS in the vesicles; settings: for PS50 (amount of PS needed to reach 50% of change in pKFI): hyperbolic fit (Eq. 2) of pKFI versus molar percent POPS, 0-20%
[5] = POPC/POPS vesicles, PS 0-20 mol%, lipid:peptide 200:1, 1 μM peptide

Sequence	Fluorescence spectral maxima ([1]; acidic pH (pH 4)) [nm]	Fluorescence spectral maxima ([1]; basic pH (pH 8)) [nm]	Fluorescence spectral maxima ([2]; acidic pH (pH 4)) [nm]	Fluorescence spectral maxima ([2]; basic pH (pH 8)) [nm]	pKFI in the presence of NaCl [3]	effect of 150 mM NaCl on the pKFI [3]	decrease in the pKFI caused by PS [4, 5] [pH units]	PS50 (amount of PS needed to reach 50% of change in pKFI) [4] [% PS]	effect of PS on the pKFI ([4]; POPC/POPS vesicles, seven PS levels between 0-20%, result in words)	increase in the pKFI caused by PS [4, 5] [pH units]
GYAGLAGLLGLEGLLGLPLGLLEGLWLGLELEGN [Y-ATRAM]	324.5 ± 2.9	343.9 ± 3.6	320.5 ± 1.9	342.7 ± 2.3	~5.7	decrease	~0.3	0.5	–	–
GLAGLAGLLGLEGLLGLPLGLLEGLWLGLELEGN [ATRAM, acidity-triggered rational membrane (ATRAM) peptide]	327.3 ± 0.7	341.1 ± 2.3	330.8 ± 0.8	350.9 ± 1.0	~5.7	decreased	–	–	not significantly affected	–
GKAGKAGLLGLEGLLGLPLGLLEGLWLGLELEGN [K2-ATRAM]	329.7 ± 1.2	342.1 ± 2.1	320.2 ± 1.7	331.7 ± 1.8	~5.4	no change	–	1.9	–	~0.4
